From US20260124214A1, “HETEROCYCLIC COMPOUNDS FOR USE IN THE TREATMENT OF CANCER” (ARTIOS PHARMA LIMITED, priority 2021, published 2026)
Structures can show the parent of a compound that is named as a salt.

Molecular target: T1, Human Polθ polymerase domain (aa1820-2590) (Homo sapiens, UniProt O75417)
T1 construct: Human Polθ polymerase domain (aa1820-2590) was expressed in E. Coli; made in house; host or cells: E. coli
T1 sequence (O75417 1820-2590): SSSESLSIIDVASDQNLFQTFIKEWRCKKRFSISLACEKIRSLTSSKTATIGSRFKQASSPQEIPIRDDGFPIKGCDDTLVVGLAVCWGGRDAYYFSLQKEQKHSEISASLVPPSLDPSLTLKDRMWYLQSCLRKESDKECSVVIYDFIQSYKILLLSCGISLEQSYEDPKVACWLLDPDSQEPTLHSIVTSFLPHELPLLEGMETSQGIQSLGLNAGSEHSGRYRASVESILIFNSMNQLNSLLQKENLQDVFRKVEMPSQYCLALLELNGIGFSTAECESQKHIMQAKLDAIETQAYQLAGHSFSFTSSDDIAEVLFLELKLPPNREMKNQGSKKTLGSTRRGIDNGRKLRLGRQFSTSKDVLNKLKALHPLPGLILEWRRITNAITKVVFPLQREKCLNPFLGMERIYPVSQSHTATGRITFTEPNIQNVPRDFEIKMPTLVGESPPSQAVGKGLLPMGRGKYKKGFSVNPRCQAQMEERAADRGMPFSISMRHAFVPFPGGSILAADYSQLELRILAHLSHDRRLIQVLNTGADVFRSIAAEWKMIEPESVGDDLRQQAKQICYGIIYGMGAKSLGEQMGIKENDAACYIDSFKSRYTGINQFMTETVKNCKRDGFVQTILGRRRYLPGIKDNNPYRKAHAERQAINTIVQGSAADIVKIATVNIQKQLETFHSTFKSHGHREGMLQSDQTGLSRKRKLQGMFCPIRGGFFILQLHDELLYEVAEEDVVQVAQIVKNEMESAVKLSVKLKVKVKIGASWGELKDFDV
Test: Polθ Polymerase Domain WT KI Assay (PicoGreen)
Assay type: biochemical
Details: 100 nM DNA substrate, 0.156 nM Polθ, initial rates vs inhibitor concentration
Description: A PicoGreen assay was used to measure the KI values of reversible compounds that inhibit the activity of Polθ in vitro.
Human Polθ polymerase domain (aa1820-2590) was expressed in E. Coli, purified, aliquoted and stored at −80° C. until required. Polθ substrate was generated from a 1.2:1 mix of DNA II Short to DNA II Long to give a final concentration of […] substrate in annealing buffer (20 mM Tris pH 7.5, 50 mM NaCl). The substrate was heated in 50 mL aliquots to 95° C. in a heating block for 5 min before the heating block switched off, the reaction left to cool to rt and stored at −20° C. until required.
Assay measurements were performed with 1× buffer comprising 25 mM Tris pH 7.5, 12.5 mM NaCl, […], 5% (v/v) glycerol, 0.01% v/v Triton x-100, 0.1 mg/ml BSA, 1 mM DTT. […] 100 nL of 23×1:1.5-fold serial dilutions and a DMSO only control were dispensed using the Tecan dispenser into Greiner 384 well black low volume plates (product code 784076). DMSO concentration was maintained at 1% of the final assay volume by back filling with DMSO.
To stop the reaction, 5 μL of a solution containing 25 mM Tris-HCl PH 7.5 and 20 mM EDTA was added at […] (t=0, 15, 30, 60, 90, 120, 150, 180 mins) using the Tempest's time delay function. The plates were covered during the time course to prevent evaporation. After completing the assay, 5 μL of detection reagent (25 mM Tris-HCl pH 7.5 and 2.5% (v/v) PicoGreen) was dispensed into the wells using a Tempest liquid handler (Formulatrix) and plates subsequently read on the CLARIOstar Plus (BMG Labtech) using the default optical settings for fluorescein and the auto gain/focus settings.
All data analysis was carried out using GraphPad Prism V.8 (GraphPad Software Inc, San Diego, CA). Time course data for each inhibitor concentration were fitted to the linear regression model in GraphPad Prism. Any time points where the control (DMSO only) reaction was no longer linear were excluded from the analysis. The initial rates (slopes) obtained from the linear regression were then plotted against inhibitor concentration and fitted to an inhibitor vs. response variable slope (four parameter) model on GraphPad Prism to determine the KI values.

SMILES | Ki
Cc1cc(C(F)(F)F)cc(N2C(=O)C[C@@H]3CN(CCN4CCNCC4)c4c(C)cccc4N(C)C(=O)[C@H]32)n1 [Example 16, (3aR,11aS)-6,10-Dimethyl-1-(6-methyl-4-(trifluoromethyl)pyridin-2-yl)-5-(2-(piperazin-1-yl)ethyl)-1,3a,4,5,10,11a-hexahydro-2H-benzo[b]pyrrolo[2,3-f][1,4]diazocine-2,11(3H)-dione] | 1.2 nM
Cc1cc(C(F)(F)F)cc(N2C(=O)C[C@@H]3CN(CCN4CC[C@H](C#N)C4)c4c(Cl)cccc4N(C)C(=O)[C@H]32)n1 [Example 39, (S)-1-(2-((3aR,11aS)-6-Chloro-10-methyl-1-(6-methyl-4-(trifluoromethyl)pyridin-2-yl)-2,11-dioxo-1,2,3,3a,4,10,11,11a-octahydro-5H-benzo[b]pyrrolo[2,3-f][1,4]diazocin-5-yl)ethyl)pyrrolidine-3-carbonitrile] | 4.13 nM
Cc1cc(C(F)(F)F)cc(N2C(=O)C[C@@H]3CN(CCN4CC5(CCO5)C4)c4c(C)cccc4N(C)C(=O)[C@H]32)n1 [Example 14, (3aR,11aS)-5-(2-(1-Oxa-6-azaspiro[3.3]heptan-6-yl)ethyl)-6,10-dimethyl-1-(6-methyl-4-(trifluoromethyl)pyridin-2-yl)-1,3a,4,5,10,11a-hexahydro-2H-benzo[b]pyrrolo[2,3-f][1,4]diazocine-2,11(3H)-dione] | 0.757 nM
Cc1cc(C(F)(F)F)cc(N2C(=O)C[C@@H]3CN(CCN4CCN(C)C[C@H]4C)c4c(C)cccc4N(C)C(=O)[C@H]32)n1 [Example 48, (3aR,11aS)-5-(2-((R)-2,4-Dimethylpiperazin-1-yl)ethyl)-6,10-dimethyl-1-(6-methyl-4-(trifluoromethyl)pyridin-2-yl)-1,3a,4,5,10,11a-hexahydro-2H-benzo[b]pyrrolo[2,3-f][1,4]diazocine-2,11(3H)-dione dihydrochloride] | 0.307 nM
Cc1cc(C(F)(F)F)cc(N2C(=O)C[C@@H]3CN(CCO)c4c(F)cccc4N(C)C(=O)[C@H]32)n1 [Example 18, (3aR,11aS)-6-Fluoro-5-(2-hydroxyethyl)-10-methyl-1-(6-methyl-4-(trifluoromethyl)pyridin-2-yl)-1,3a,4,5,10,11a-hexahydro-2H-benzo[b]pyrrolo[2,3-f][1,4]diazocine-2,11(3H)-dione] | 16.7 nM
Cc1cc(C(F)(F)F)cc(N2C(=O)C[C@@H]3CN(CCN4CCN(C)C[C@@H]4C)c4c(C)cccc4N(C)C(=O)[C@H]32)n1 [Example 49, (3aR,11aS)-5-(2-((S)-2,4-Dimethylpiperazin-1-yl)ethyl)-6,10-dimethyl-1-(6-methyl-4-(trifluoromethyl)pyridin-2-yl)-1,3a,4,5,10,11a-hexahydro-2H-benzo[b]pyrrolo[2,3-f][1,4]diazocine-2,11(3H)-dione dihydrochloride] | 0.457 nM
Cc1cc(C(F)(F)F)cc(N2C(=O)C[C@@H]3CN(CCN4CC[C@@H](O)C4)c4c(C)cccc4N(C)C(=O)[C@H]32)n1 [Example 56, (3aR,11aS)-5-(2-((R)-3-Hydroxypyrrolidin-1-yl)ethyl)-6,10-dimethyl-1-(6-methyl-4-(trifluoromethyl)pyridin-2-yl)-1,3a,4,5,10,11a-hexahydro-2H-benzo[b]pyrrolo[2,3-f][1,4]diazocine-2,11(3H)-dione] | 3.12 nM

Results, then the compound that gave them:

Ki | SMILES
0.936 nM | Cc1cc(C(F)(F)F)cc(N2C(=O)C[C@@H]3CN(CCN4CC[C@H](N(C)C)[C@H](F)C4)c4c(C)cccc4N(C)C(=O)[C@H]32)n1 [Example 66, (3aR,11aS)-5-(2-((3R,4S)-4-(Dimethylamino)-3-fluoropiperidin-1-yl)ethyl)-6,10-dimethyl-1-(6-methyl-4-(trifluoromethyl)pyridin-2-yl)-1,3a,4,5,10,11a-hexahydro-2H-benzo[b]pyrrolo[2,3-f][1,4]diazocine-2,11(3H)-dione dihydrochloride]
1.48 nM | COCCN1CCC(CN2C[C@H]3CC(=O)N(c4cc(C(F)(F)F)cc(C)n4)[C@@H]3C(=O)N(C)c3cccc(Cl)c32)CC1 [Example 87, (3aR,11aS)-6-Chloro-5-((1-(2-methoxyethyl)piperidin-4-yl)methyl)-10-methyl-1-(6-methyl-4-(trifluoromethyl)pyridin-2-yl)-1,3a,4,5,10,11a-hexahydro-2H-benzo[b]pyrrolo[2,3-f][1,4]diazocine-2,11(3H)-dione]
2.54 nM | Cc1cc(C(F)(F)F)cc(N2C(=O)C[C@@H]3CN(CC4CCN(C)CC4)c4c(Cl)cccc4N(C)C(=O)[C@H]32)n1 [Example 84, (3aR,11aS)-6-Chloro-10-methyl-1-(6-methyl-4-(trifluoromethyl)pyridin-2-yl)-5-((1-methylpiperidin-4-yl)methyl)-1,3a,4,5,10,11a-hexahydro-2H-benzo[b]pyrrolo[2,3-f][1,4]diazocine-2,11(3H)-dione]
2.02 nM | Cc1cc(C(F)(F)F)cc(N2C(=O)C[C@@H]3CN(C[C@@H]4CNCCO4)c4c(Cl)cccc4N(C)C(=O)[C@H]32)n1 (racemic) [Example 109b, (3aR,11aS)-6-Chloro-10-methyl-1-(6-methyl-4-(trifluoromethyl)pyridin-2-yl)-5-(((S/R)-morpholin-2-yl)methyl)-1,3a,4,5,10,11a-hexahydro-2H-benzo[b]pyrrolo[2,3-f][1,4]diazocine-2,11(3H)-dione]
8.7 nM | Cc1cc(C(F)(F)F)cc(N2C(=O)C[C@@H]3CN(CC4CCCNC4)c4c(F)cccc4N(C)C(=O)[C@H]32)n1 (stereo partly drawn) [Example 97, (3aR,11aS)-6-Fluoro-10-methyl-1-(6-methyl-4-(trifluoromethyl)pyridin-2-yl)-5-(piperidin-3-ylmethyl)-1,3a,4,5,10,11a-hexahydro-2H-benzo[b]pyrrolo[2,3-f][1,4]diazocine-2,11(3H)-dione hydrochloride]
4.14 nM | Cc1cc(C(F)(F)F)cc(N2C(=O)C[C@@H]3CN(CC4COCCN4)c4c(C)cccc4N(C)C(=O)[C@H]32)n1 (single isomer, unassigned) [Example 112a]
1.3 nM | Cc1cc(C(F)(F)F)cc(N2C(=O)C[C@@H]3CN(CC4CCN(CCO)CC4)c4c(C)cccc4N(C)C(=O)[C@H]32)n1 [Example 88, (3aR,11aS)-5-((1-(2-Hydroxyethyl)piperidin-4-yl)methyl)-6,10-dimethyl-1-(6-methyl-4-(trifluoromethyl)pyridin-2-yl)-1,3a,4,5,10,11a-hexahydro-2H-benzo[b]pyrrolo[2,3-f][1,4]diazocine-2,11(3H)-dione]
1.07 nM | Cc1cc(C(F)(F)F)cc(N2C(=O)C[C@@H]3CN(CCN4CCN(C)[C@@H](CO)C4)c4c(C)cccc4N(C)C(=O)[C@H]32)n1 [Example 63, (3aR,11aS)-5-(2-((R)-3-(Hydroxymethyl)-4-methylpiperazin-1-yl)ethyl)-6,10-dimethyl-1-(6-methyl-4-(trifluoromethyl)pyridin-2-yl)-1,3a,4,5,10,11a-hexahydro-2H-benzo[b]pyrrolo[2,3-f][1,4]diazocine-2,11(3H)-dione]
0.564 nM | Cc1cc(C(F)(F)F)cc(N2C(=O)C[C@@H]3CN(CCN4CCN[C@@H](C)C4)c4c(C)cccc4N(C)C(=O)[C@H]32)n1 [Example 57, (3aR,11aS)-6,10-Dimethyl-1-(6-methyl-4-(trifluoromethyl)pyridin-2-yl)-5-(2-((S)-3-methylpiperazin-1-yl)ethyl)-1,3a,4,5,10,11a-hexahydro-2H-benzo[b]pyrrolo[2,3-f][1,4]diazocine-2,11(3H)-dione dihydrochloride]
